Experimental data from patent publication US12156865B2, “Formulation for soft anticholinergic analogs” (Bodor Laboratories, Inc., priority 2016, dated 2024).

Columns and labels:
[1] = Hydrolysis and stability testing of aqueous BBI-4000 formulations (HPLC); conditions: aqueous formulations of Table II
Procedure: An HPLC method was developed at a commercial laboratory for assaying the soft anticholinergic analog, and related substances (including hydrolysis products):
• High performance liquid chromatography (HPLC) system Chromatography data system • XBridge Shield RP18, 4.6×150 mm, 3.5 μm HPLC column • Analytical balance capable of weighing to 0.00001 g • Ultrasonic bath • Volumetric flasks, 1, 5 mL • Syringe Filter: 25 mm, 0.45 μm, HPF Millex-HV, Millipore or suitable alternative
• BBI-4000 standard • Water, HPLC grade • Acetonitrile (can), Optima grade • Trifluroacetic acid (TFA), Fisher • Mobile Phase “A”: 0.1% TFA in Water • Mobile Phase “B”: 0.1% TFA in Acetonitrile • Auto Sampler Flush: 1:1 Water:Acetonitrile • Diluent: Acetonitrile
The standards were prepared in duplicate by weighing 2.0±0.1 mg of BBI-4000 into 1 mL volumetric flasks. Dissolved and diluted to volume with acetonitrile and mixed by inversion.
The liquid chromatographic system was set-up as follows: • HPLC Column: XBridge Shield RP18, 4.6×150 mm, 3.5 μm • Column Temp.: 25±1° C. • Sample Temp.: ambiant • Flow Rate: 1.5 mL/min • Injection Volume: 10 μL • UV Detection: 220 nm • Run Time: 20 minutes
The HPLC assay was conducted on formulations at differing pH values, and the results were reviewed for “Time-Zero” and at 7 days at 40° C.:

[2] = test system: sweat production in subjects with axillary hyperhidrosis; experiment: Study BBI-4000-CL-101: gravimetrically measured sweat production; format: in vivo, human
Procedure: (§1) Efficacy was assessed by the change in gravimetrically measured sweat production and the change in hyperhidrosis disease severity scale (HDSS) from baseline to Day 15 (end of therapy).
For the gravimetric assessment, sweat production was measured by placing filter paper (pre-weighed) on the axilla for 5 minutes while the subject was in a semi-reclining position at room temperature. The filter paper was covered with plastic during exposure to the axilla, and was then weighed following the 5-minute exposure period to calculate the amount of sweat produced.

[3] = Stability of approximately 2% BBI-4000 formulations in four solvent systems (HPLC); format: physicochemical; conditions: for Change from Baseline (40° C./75%), reduction: after 7 days at 40° C./75% humidity
Procedure: Various formulations of approximately 2% BBI-4000 were made and their stabilities assessed. The solvent systems were as follows:
(a) solvent content: 100% water;
(b) solvent content: 60% water/40% ethanol;
(c) solvent content: 30% water/70% ethanol;
(d) solvent content: 100% ethanol.
Each sample was assessed at baseline; after 7 days at 25° C./60% humidity; and after 7 days at 40° C./75% humidity. The percentage change from baseline for 40° C. after 7 days was calculated in each case. HPLC analysis was conducted as described in EXAMPLE 2 below.

[4] = Toxicokinetics (PK analysis) in Gottingen Minipigs; format: in vivo
Procedure: (§2) All groups received 2 mL of gel formulation, once a day, for 14 consecutive days, applied to approximately 10% of their body surface area on their backs.
Blood samples for chemistry and hematology analysis were collected as well as PK samples.
(§3) The estimated BBI-4000 dose applied to the skin in this study was 40 mg/kg/day for Group 3 and 20 mg/kg/day for Group 2.

[5] = test system: subjects with axillary hyperhidrosis; experiment: Study BBI-4000-CL-101: hyperhidrosis disease severity scale (HDSS); format: in vivo, human
Procedure: as §1
For the HDSS, subjects rated the severity of their hyperhidrosis on a 4-point scale (1, 2, 3, or 4) based on the level of interference with their daily activities.

Gottingen Minipigs = experiment: 14-day dermal and systemic toxicity study in Gottingen Minipigs; conditions: anhydrous composition, 14 days
Procedure: as §2
The study included daily observations of the site of application and scoring of erythema and edema (if present), daily general examinations including heart rate as well as pupil size assessment at days 1, 2, 3, 5, 7, 10 and 14. The frequent observations of heart rate and pupil size were intended to identify any potential systemic anticholinergic effect. Main organs were evaluated during necropsy and histopathology evaluation was completed for treated and untreated skin. Blood samples for chemistry and hematology analysis were collected as well as PK samples.
as §3

[6] = Solvent Content: 30% water, 70% Ethanol, Baseline
[7] = Solvent Content: 30% water, 70% Ethanol, Day 7 @ 25° C./60%
[8] = Solvent Content: 30% water, 70% Ethanol, Day 7 @ 40° C./75%
[9] = Solvent Content: 60% water, 40% Ethanol, Baseline
[10] = Solvent Content: 60% water, 40% Ethanol, Day 7 @ 25° C./60%
[11] = Solvent Content: 60% water, 40% Ethanol, Day 7 @ 40° C./75%
[12] = Solvent Content: 100% Ethanol, Baseline
[13] = Solvent Content: 100% Ethanol, Day 7 @ 25° C./60%
[14] = Solvent Content: 100% Ethanol, Day 7 @ 40° C./75%
[15] = Solvent Content: 100% Water, Baseline
[16] = Solvent Content: 100% Water, Day 7 @ 25° C./60%
[17] = Solvent Content: 100% Water, Day 7 @ 40° C./75%

SMILES: CCOC(=O)C[N@+]1(C)CCC(OC(=O)[C@](O)(c2ccccc2)C2CCCC2)C1.[Br-] (stereo partly drawn) [BBI-4000, (2R,3′R) 3-(2-cyclopentyl-2-phenyl-2-hydroxyacetoxy)-1-(ethoxycarbonylmethyl)-1-methylpyrrolidinium bromide]
- BBI-4000 content (assay number) ([1]; differing pH, Day 7 at 40° C. vs Time-Zero): decreased
- Hydrolytic degradation products (two zwitterion stereoisomers, RRT 0.84 and RRT 0.80) ([1]; Day 7 at 40° C.): noticeably increased
- Reduction in gravimetrically measured sweat production compared to vehicle ([2]; Cohort 2, baseline to Day 15): greater reduction
- Proportion of subjects with at least a 50% reduction in sweat production ([2]; Day 15, aggregate of 5% and 10% gel (9 of 12)): 75%
- BBI-4000 Assay [3, 6]: 1.99%
- BBI-4000 Main Hydrolysis Products (RRT-0.79-0.84) [3, 6]: 0%
- BBI-4000 Assay [3, 7]: 1.95%
- BBI-4000 Main Hydrolysis Products (RRT-0.79-0.84) [3, 7]: 0.84%
- BBI-4000 Assay [3, 8]: 1.89%
- BBI-4000 Main Hydrolysis Products (RRT-0.79-0.84) [3, 8]: 3.50%
- Change from Baseline (40° C./75%), reduction ([3]; Solvent Content: 30% water, 70% Ethanol): 5%
- BBI-4000 Assay [3, 9]: 1.99%
- BBI-4000 Main Hydrolysis Products (RRT-0.79-0.84) [3, 9]: 0%
- BBI-4000 Assay [3, 10]: 1.94%
- BBI-4000 Main Hydrolysis Products (RRT-0.79-0.84) [3, 10]: 0.83%
- BBI-4000 Assay [3, 11]: 1.89%
- BBI-4000 Main Hydrolysis Products (RRT-0.79-0.84) [3, 11]: 3.40%
- Change from Baseline (40° C./75%), reduction ([3]; Solvent Content: 60% water, 40% Ethanol): 5%
- BBI-4000 Assay [3, 12]: 2.02%
- BBI-4000 Main Hydrolysis Products (RRT-0.79-0.84) [3, 12]: 0%
- BBI-4000 Assay [3, 13]: 2%
- BBI-4000 Main Hydrolysis Products (RRT-0.79-0.84) [3, 13]: 0%
- BBI-4000 Assay [3, 14]: 2.01%
- BBI-4000 Main Hydrolysis Products (RRT-0.79-0.84) [3, 14]: 0%
- Change from Baseline (40° C./75%), reduction ([3]; Solvent Content: 100% Ethanol): <1%
- BBI-4000 Assay [3, 15]: 1.99%
- BBI-4000 Main Hydrolysis Products (RRT-0.79-0.84) [3, 15]: 0%
- BBI-4000 Assay [3, 16]: 1.91%
- BBI-4000 Main Hydrolysis Products (RRT-0.79-0.84) [3, 16]: 1.90%
- BBI-4000 Assay [3, 17]: 1.80%
- BBI-4000 Main Hydrolysis Products (RRT-0.79-0.84) [3, 17]: 7.42%
- Change from Baseline (40° C./75%), reduction ([3]; Solvent Content: 100% Water): 9.5%
- Systemic exposure of BBI-4000 (PK analysis) ([4]; 10% and 20% gel (20 and 40 mg/kg/day), topical, 14 days): variable, dose related systemic exposure
- Time at which the highest concentration was observed ([4]; after Day-14 dosing, minipig receiving 20% BBI-4000 concentration): 2 h
- Improvement in HDSS assessments compared to vehicle ([5]; Cohort 2, baseline to Day 15): greater improvement
- Proportion of subjects reporting a 2-point improvement in HDSS ([5]; Day 15, aggregate of 5% and 10% gel (8 of 12)): 67%
- Histopathology analysis of treated skin (Gottingen Minipigs): unremarkable and identical to non-treated and vehicle treated skin
